Results from the supplement of paper PMC10307832.

Tests used:
Assay in all cases: relative viability (nuclei count vs DMSO), 5 days (fraction); higher = more cells survive
[1] = compound: COc1cccc2cc(-c3nc([C@H]4CC[C@H](C(=O)O)CC4)n4ncnc(N)c34)[nH]c12 [OSI-027] + CS(=O)(=O)CCNCc1ccc(-c2ccc3ncnc(Nc4ccc(OCc5cccc(F)c5)c(Cl)c4)c3c2)o1 [Lapatinib] (partner 2 µM)
Procedure, shortened: (§1)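 Lung cancer cell lines were pin-tool dosed in 1536-well plates on the day after seeding, with either a lone drug or a fixed anchor-drug dose plus five library-drug doses (not always all listed) in √10 steps. Nuclei were counted on 4× images after 5 days. Relative viability is the ratio of treated-well to vehicle-well nuclei counts, with each value a median of duplicate plates.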

[2] = compound: CCCS(=O)(=O)Nc1ccc(F)c(C(=O)c2c[nH]c3ncc(-c4ccc(Cl)cc4)cc23)c1F [Vemurafenib] + O=C(CCCCCCC(=O)Nc1ccccc1)NO [Vorinostat] (partner 1 µM)
Procedure, shortened: as §1

[3] = compound: Cc1nc(NC(=O)N2CCC[C@H]2C(N)=O)sc1-c1ccnc(C(C)(C)C(F)(F)F)c1 [Alpelisib] + Cc1cc(Nc2cc(N3CCN(C)CC3)nc(Sc3ccc(NC(=O)C4CC4)cc3)n2)n[nH]1 [Tozasertib] (partner 0.1 µM)
Procedure, shortened: as §1

[4] = compound: CCCS(=O)(=O)Nc1ccc(F)c(C(=O)c2c[nH]c3ncc(-c4ccc(Cl)cc4)cc23)c1F [Vemurafenib] + CC(C)C[C@H](NC(=O)[C@H](Cc1ccccc1)NC(=O)c1cnccn1)B(O)O [Bortezomib] (partner 0.002 µM)
Procedure, shortened: as §1

Cell Line | relative viability ([1]; first compound 0.01 µM) | relative viability ([1]; first compound 0.03162 µM) | relative viability ([1]; first compound 0.1 µM) | relative viability ([1]; first compound 0.3162 µM) | relative viability ([1]; first compound 1 µM) | relative viability ([2]; first compound 0.03162 µM) | relative viability ([2]; first compound 0.1 µM) | relative viability ([2]; first compound 0.3162 µM) | relative viability ([2]; first compound 1 µM) | relative viability ([3]; first compound 0.04 µM) | relative viability ([3]; first compound 0.1265 µM) | relative viability ([3]; first compound 0.4 µM) | relative viability ([3]; first compound 1.265 µM) | relative viability ([3]; first compound 4 µM) | relative viability ([4]; first compound 0.03162 µM) | relative viability ([4]; first compound 0.1 µM) | relative viability ([4]; first compound 1 µM) | relative viability ([4]; first compound 0.3162 µM)
SK-LU-1 | 0.888 | 0.817 | 0.656 | 0.519 | 0.29 | 0.699 | 0.687 | 0.535 | 0.835 | 0.347 | 0.289 | 0.372 | 0.256 | 0.216 | 0.86 | 1.05 | 1.14 | –
HCC-44 | 1.05 | 0.975 | 0.93 | 0.85 | 0.444 | 1.09 | 1.01 | 1.09 | 1.16 | 0.883 | 0.935 | 1.11 | 0.376 | 0.607 | 0.861 | 0.993 | 0.861 | 0.824
NCI-H460 | 1.11 | 0.716 | 0.814 | 0.536 | 0.102 | 0.661 | 0.729 | 0.665 | 0.723 | 0.153 | 0.44 | 0.563 | 0.181 | 0.241 | 0.982 | 1.1 | 1.04 | 0.932
NCI-H1915 | 1.03 | 1.07 | 0.918 | 0.885 | 0.806 | 0.468 | 0.468 | 0.455 | 0.478 | 0.421 | 0.381 | 0.491 | 0.387 | 0.392 | 0.894 | 0.995 | 0.91 | 0.886
NCI-H2126 | 0.771 | 0.814 | 0.728 | 0.563 | 0.529 | 0.761 | 0.576 | 0.869 | 0.633 | 0.879 | 0.826 | 0.809 | 0.627 | 0.584 | 1.07 | 1.07 | 1.14 | 1.09
EPLC-272H | 1.12 | 0.965 | 0.699 | 0.664 | 0.55 | 0.553 | 0.4 | 0.528 | 0.543 | 0.256 | 0.326 | 0.513 | 0.203 | 0.173 | 0.857 | 0.749 | 0.867 | 0.812
NCI-H661 | 0.509 | 0.519 | 0.453 | 0.334 | 0.279 | 0.73 | 0.72 | 0.803 | 0.749 | 0.369 | 0.362 | 0.348 | 0.337 | 0.323 | 0.877 | 0.663 | 0.778 | 0.765
PC-3 [JPC-3] | 0.452 | 0.454 | 0.412 | 0.327 | 0.298 | – | – | 0.66 | 1.06 | 0.898 | 0.873 | 0.968 | 0.84 | 0.806 | 0.81 | – | 0.887 | 0.804
NCI-H2087 | 1.11 | 1.06 | 0.873 | 0.951 | 0.769 | 0.894 | 0.958 | 0.531 | 0.716 | 0.256 | 0.294 | 0.305 | 0.218 | 0.167 | 0.759 | 0.701 | 0.753 | –
